Measured values reported in EP3398599A1, “COMPOSITIONS AND METHODS FOR PROPHYLAXIS AND TREATMENT OF ADDICTIONS” (priority 2009, dated 2010).

Columns and labels:
human patients = assay: Observational study of alcohol abuse in human patients (pioglitazone 30 mg/day or naltrexone 50 mg/day + psychotherapy); assay type: in vivo; details: T=0 (beginning of the treatment)
Description: Patients were instructed to record in a personal logbook the number of drinks per day and the time of the day drinks occurred. At the end of the study, the logbooks were returned to the clinical personnel who analyzed the data.
In addition, biochemical parameters to ascertain alcohol detoxification and to measure recovery of physiological functions (i.e., hepatic function) were monitored monthly. Hematological parameters measured included: mean corpuscular volume (MCV); gamma-GT; aspartate aminotransferase (AST); alanine aminotransferase (ALT); and carbohydrate-deficient transferring (CDT). MCV and CDT are biomarkers for ethanol consumption, and GGT, ALT and AST are biomarkers for hepatic functionality.
Data were analyzed by analysis of variance followed by Newman-Keuls post hoc tests when appropriate.

msP rats = assay: Voluntary ethanol intake, acute treatment, free choice between water and 10% alcohol 24 hours a day; assay type: in vivo; details: for ethanol intake: 2, 8 and 24 hours
Procedure: The drug was given orally (OS) via gavage procedure in a volume of 1.0 ml/kg. Yohimbine was dissolved in distilled water and was administered intraperitoneally (IP) in a volume of 1.0 ml/kg. […] These drugs were given orally (OS) via gavage procedure in a volume of 1.0 ml/kg. Yohimbina was dissolved in distilled water and was administered intraperitoneally (IP) in a volume of 1.0 ml/kg. GW9662 was prepared in 5% DMSO and 5% TWIN 80 and was given either IP (1 ml/kg) or intacerebroventricularly (ICV, 1 µl/rat). Antalarmin was prepared in 10 % TWIN 80 and was given IP (1 ml/kg). Ondansetron was prepared in acqueous solution and was given IP (1 ml/kg).
At the beginning of the experiments, msP rats were allowed free choice between water and 10% (v/v) alcohol 24 h/day for at least 15 days. The fluids were offered in graduated drinking tubes equipped with metallic drinking spouts. The position (to the right or left) of alcohol and water drinking tubes was changed daily to avoid the development of side preference. […] Alcohol, water and food intakes were measured.
MsP rats were first trained to drink 10% (w/v) alcohol for 24 hours a day (free choice between water and ethanol). […] Before starting the treatment, rats were trained to gavage administration procedures for three days, during which they received vehicle (distilled water). […] Drinking experiments started at the beginning of the dark cycle. Alcohol, water and food intakes were monitored at 2, 8 and 24 hours after ethanol was made available.
Before starting the treatment, rats were trained to gavage and IP administration procedures for three days. Experiment was conducted in a between subject design (n = 22). […] Drinking experiments started at the beginning of the dark cycle. Alcohol, water and food intakes were monitored at 2, 8 and 24 hours after ethanol was made available.
The experiment was conduced using a within subject counterbalanced Latine square design, where each animal received all drug doses.
The drinking experiments were conducted at the beginning of the dark cycle, and alcohol, water and food intakes were monitored at 2, 8 and 24 hours after ethanol was made available.
MsP rats were first trained to drink 10% (w/v) alcohol for 24 hours a day (free choice between water and ethanol). […] Rats treated with drug vehicles served as a control. Before starting the treatment, rats were trained to gavage administration for three days, during which they received drugs vehicle (distilled water). […] Drinking experiments started at the beginning of the dark cycle. Alcohol, water, and food intakes were monitored at 2, 8 and 24 hours after ethanol was made available.
(§1) MsP rats were first trained to drink 10% (w/v) alcohol for 24 hours a day (free choice between water and ethanol). […] Rats treated with drug vehicles served as a control. Before starting the treatment, rats were trained to gavage administration for three days, during which they received drugs vehicle (distilled water). […] Drinking experiments started at the beginning of the dark cycle. Alcohol, water and food intakes were monitored at 2, 8 and 24 hours after ethanol was made available.
as §1
MsP rats were first trained to drink 10% (w/v) alcohol for 24 hours a day (free choice between water and ethanol). […] Rats treated with drug vehicles served as a control. Before starting the treatment, rats were trained to gavage administration for three days, during which they received drugs vehicle (distilled water).

CD mice [1] = details: mouse, in vivo
CD mice [2] = assay: Morphine-induced analgesic tolerance, tail-flick test; details: mouse, in vivo
Procedure: All procedures were conducted in adherence to the European Community Council Directive for Care and Use of Laboratory Animals.
Mice were divided into 6 groups. Group 1 (n=8) received drug vehicles (veh/veh). […] Animals were treated twice daily (between 9:00 and 10:00 a.m. and 9:00 and 10:00 p.m.).
Morphine hydrochloride was purchased from Salars (Milano, Italy). Morphine (30 mg/kg) was dissolved in NaCl […] and was injected intraperitoneally (IP) twice a day at the indicated doses in a volume of 0.2 ml per mice. […] It was dissolved in distilled water and was administered per o.s. at the doses of 10 mg/kg and 30 mg/kg in a volume of 0.6 ml per mice.
Two different tests were used to monitor analgesic responses. The tail-flick test was performed 45 min after the morning injection of morphine, and the tail-immersion test was performed 45 min after the evening injection of morphine.
For the tail-flick test, each mouse was gently restrained in a soft tissue pocket, and the tail (1 cm from the tip) was exposed to a hot light beam. Latency for tail-flick was measured with a 6 seconds cut-off time. For the tail-immersion test, each mouse was restrained in a soft tissue pocket, and the distal half of the tail dipped into a water bath set at 52 C°. Latency for removing the tail from the hot water was measured with a 10 seconds cut-off time.

heavy tobacco smokers = assay: Pilot study in heavy tobacco smokers (pioglitazone 15-30 mg/daily, varenicline 0.5 to 2.0 mg/day, bupropione); assay type: in vivo, human; details: for STAI score (anxiety): over 10 treatment weeks
Description: […] Patients were instructed to record in a personal logbook the number of cigarettes per day and the time of the day smoking occurred. At the end of the study, the logbooks were returned to the clinical personnel who analyzed the data. Every other week, participants were interviewed and subjected to the Spielberger State-Trait Anxiety Inventory (STAI), the Montgomery Asberg Depression Rating Scale (M.A.D.R.S 10 Item), and to a Visual Analogic Scale (VAS) to measure nicotine craving. During the first month of treatment, every two weeks, ACTH and cortisol levels were also monitored to evaluate HPA activation before and during treatment.

CCc1ccc(CCOc2ccc(CC3SC(=O)NC3=O)cc2)nc1 (centres unmarked) [pioglitazone] was tested, and the “Anxiety Score obtained using The STAY-Y1 scale (mean score values)” value (human patients) was 59.
In the case of CC[C@@H](C(N)=O)N1CCCC1=O [levetiracetam], the “ethanol intake in msP rats in a pilot study” value (“ethanol intake in msP rats” for short) (msP rats; levetiracetam 100.0 mg/kg OS) is reported as “did not reduce ethanol intake” and the ethanol intake (msP rats; levetiracetam alone 100.0 mg/kg OS, given twice) is reported as “did not significantly modify ethanol intake”.
For CN1CC[C@]23c4c5ccc(O)c4O[C@H]2[C@@H](O)C=C[C@H]3[C@H]1C5 [morphine], the “analgesic effect (tail-immersion) on test day 9” value (CD mice [1]) was “marginally significant”, the “tail-immersion latency on day 1, 3, 5, and 7” value (CD mice [1]) was “significantly increased the time to tail-flick” and the “time to tail-flick on day 1, 3 and 5” value (CD mice [2]) was “significantly increased the time to tail-flick”. The “time to tail-flick on test days 7 and 9” value (CD mice [2]) was “non significant difference from controls”.
In the case of NCC1(CC(=O)O)CCCCC1 [gabapentin], the “ethanol intake in msP rats” value (msP rats; gabapentin 60.0 mg/kg OS) is reported as “did not reduce ethanol intake” and the ethanol intake (msP rats; gabapentin alone 60.0 mg/kg OS) is reported as “did not significantly modify ethanol intake”.
CN1CCN2c3ncccc3Cc3ccccc3C2C1 (centres unmarked) [mirtazapine] was tested, and the “ethanol intake in msP rats” value (msP rats; mirtazapine 5.0 mg/kg OS) was “did not reduce ethanol intake” and the ethanol intake (msP rats; mirtazapine alone 5.0 mg/kg OS, given twice) was “did not significantly modify ethanol intake”.
In the case of CC1(C)O[C@@H]2[C@@H](CO[C@@]3(COS(N)(=O)=O)OC(C)(C)O[C@@H]23)O1 [topiramate], the “ethanol intake in msP rats” value (msP rats; topiramate 30.0 mg/kg OS) is reported as “did not reduce ethanol intake”, the ethanol intake (msP rats; topiramate alone 30.0 mg/kg OS, given twice) is reported as “did not significantly modify ethanol intake” and the “ethanol intake at 2 hours” value (msP rats; topiramate alone 30.0 mg/kg OS, p<0.05) is reported as “significant reduction of ethanol intake at 2 hours”.
For c1cnc2cc3c(cc2n1)[C@@H]1CNC[C@H]3C1 [varenicline], the “Percent inhibition of smoking” value (heavy tobacco smokers; Patient 1, T=0 (baseline expressed as 100%)) was 100%, the “Percent inhibition of smoking” value (heavy tobacco smokers; Patient 1, T=2 weeks of treatment) was 34% and the “Percent inhibition of smoking” value (heavy tobacco smokers; Patient 1, T=4 weeks of treatment) was 46%. For the same compound, the “Percent inhibition of smoking” value (heavy tobacco smokers; Patient 1, T=6 weeks of treatment) was 61%, the “Percent inhibition of smoking” value (heavy tobacco smokers; Patient 1, T=8 weeks of treatment) was 80% and the “Percent inhibition of smoking” value (heavy tobacco smokers; Patient 1, T=10 weeks of treatment) was 93%. The “Percent inhibition of smoking” value (heavy tobacco smokers; Patient 2, T=0 (baseline expressed as 100%)) was 100%, the “Percent inhibition of smoking” value (heavy tobacco smokers; Patient 2, T=2 weeks of treatment) was 22% and the “Percent inhibition of smoking” value (heavy tobacco smokers; Patient 2, T=4 weeks of treatment) was 47%. The “Percent inhibition of smoking” value (heavy tobacco smokers; Patient 2, T=6 weeks of treatment) was 63%, the “Percent inhibition of smoking” value (heavy tobacco smokers; Patient 2, T=8 weeks of treatment) was 87% and the “Percent inhibition of smoking” value (heavy tobacco smokers; Patient 2, T=10 weeks of treatment) was 100%. The “Percent inhibition of smoking” value (heavy tobacco smokers; Patient 3, T=0 (baseline expressed as 100%)) was 100%, the “Percent inhibition of smoking” value (heavy tobacco smokers; Patient 3, T=2 weeks of treatment) was 38% and the “Percent inhibition of smoking” value (heavy tobacco smokers; Patient 3, T=4 weeks of treatment) was 54%. The “Percent inhibition of smoking” value (heavy tobacco smokers; Patient 3, T=6 weeks of treatment) was 62%, the “Percent inhibition of smoking” value (heavy tobacco smokers; Patient 3, T=8 weeks of treatment) was 79% and the “Percent inhibition of smoking” value (heavy tobacco smokers; Patient 3, T=10 weeks of treatment) was 94%. The “STAI score (anxiety)” value (heavy tobacco smokers) was “significantly reduced”, the “subjects reaching complete abstinence” value (heavy tobacco smokers; pioglitazone 4 patients, varenicline 3 patients) was “one of them” and the “percent of weekly smoked cigarettes: pioglitazone vs varenicline” value (heavy tobacco smokers; post hoc tests) was “no significant differences”.
In the case of O=C(Nc1ccccc1)c1cc([N+](=O)[O-])ccc1Cl [GW9662], the “ethanol intake per se” value (msP rats; GW9662 5 µg/rat ICV alone) is reported as “did not significantly affect ethanol intake per se”, the “pioglitazone-induced reduction of ethanol intake” value (msP rats; GW9662 5 µg/rat ICV with pioglitazone 30 mg/kg OS) is reported as “completely prevented the effect of pioglitazone” and the “pioglitazone-induced reduction of ethanol intake” value (msP rats; GW9662 IP (1.0 and 5.0 mg/kg) with pioglitazone 30 mg/kg OS) is reported as “blocked the effect of pioglitazone in a dose related manner”. For the same compound, the ethanol drinking (msP rats; GW9662 alone (1.0 and 5.0 mg/kg IP)) was “did not modify ethanol drinking”.
In the case of CNCCC(Oc1ccc(C(F)(F)F)cc1)c1ccccc1 (centres unmarked) [fluoxetine], the “ethanol intake in msP rats” value (msP rats; fluoxetine 3.0 mg/kg OS) is reported as “did not reduce ethanol intake” and the ethanol intake (msP rats; fluoxetine alone 3.0 mg/kg OS, given twice) is reported as “did not significantly modify ethanol intake”.
With CC(NC(C)(C)C)C(=O)c1cccc(Cl)c1 (centres unmarked) [bupropione] the “STAI score (anxiety)” value (heavy tobacco smokers) was “not with bupropione”.
Cc1nccn1CC1CCc2c(c3ccccc3n2C)C1=O (centres unmarked) [ondansetron] was tested, and the “ethanol intake in msP rats” value (msP rats; ondansetron 1.0 mg/kg IP) was “did not reduce ethanol intake” and the ethanol intake (msP rats; ondansetron alone 1.0 mg/kg IP, given twice) was “did not significantly modify ethanol intake”.
